Laboratory results published in patent publication US11485728B2, “Small molecules for the treatment of autoimmune diseases and cancer” (Athos Therapeutics, Inc., priority 2020, dated 2022).

Test: Dosing formulation stability (physical, potency, impurity profile)
Format: physicochemical
Settings: for Conc. (potency) / Observation (physical state): dosing formulation
Description: 5 mg/mL of test compound was formulated with 10% Dimethylacetamide (DMA), 30% Propylene Glycol, 35% PEG-300, 25% water (H2O). The formulation solution was stored at 4° C. and 25° C. The samples were retrieved at the following time points: 1 day, 3 days, 5 days, 7 days, 10 days and 14 days. The sample retrieved at each time point was examined visually observation of the physical state (texture and color) prior to sample preparation for analysis for physical stability. For chemical stability, the sample was diluted 1:250 dilution with acetonitrile (ACN) for potency analysis, and to 100 ug/mL final solution for impurity profile. The sample were prepared in triplication for potency analysis. The samples were then injected to HPLC for the determination of test compound concentration and its impurity profile. An Agilent 1260 Infinity II Lab LC Series HPLC system was used including 1260 Quat pump, 1260 vial autosampler, ICC column oven, and 1260 DAD WR detector. The chromatographic separation was achieved by a Phenomenex Synergi Polar RP column (150×4.6 mm, 4 μm, 80 Å). The flow rate was 1 mL/min and the detection was set at 254 nm. Injection volume was 10 uL, otherwise specified. The mobile phase consisted A, water with 0.1% trifluoroacetic acid and B, acetonitrile with 0.1% trifluoroacetic acid. […] For impurity profile, the gradient was A/B (99:1) from 0 minute; to A/B (1:99) from 0 to 15 minutes; A/B (1:99) from 15 to 18 minutes; to A/B (99:1) from 18 to 18.1 minutes; A/B (99:1) from 18.1 to 20 minutes. Data acquisition and peak integrations were obtained by OpenLAB CDS Version 2.4 (Agilent) operating with Windows (Microsoft).
Physical and chemical stability of dosing formulation lead to the investigation of potential impurities upon storage at various temperatures. The stability results can be used to assess the appropriate storage conditions and shelf life of a formulation, and can provide important information for drug formulation development, nonclinical, and clinical studies, especially on-going efficacy studies. The dosing formulation in these experiments contained 5 mg/mL test compound 1, with 10% Dimethylacetamide (DMA), 30% Propylene Glycol, 35% PEG-300, 25% water (H2O). The dosing formulation was stored at 4° C. and 25° C. The samples were retrieved at the following time points: 1 day and 3 days. The dosing formulation was diluted and analyzed for potency and impurity profile using reverse phase high pressure liquid chromatography. The impurity profile was described as the relative percent peak area of each peak detected.

COc1cc2c(NC3CCS(=O)(=O)CC3)nc(N3CCC(F)(F)CC3)nc2cc1OCCCN1CCCC1 [Compound 1, 4-((2-(4,4-difluoropiperidin-1-yl)-6-methoxy-7-(3-(pyrrolidin-1-yl)propoxy)quinazolin-4-yl)amino)tetrahydro-2H-thiopyran 1,1-dioxide]
Impurity Peak RRT 0.978, relative percent peak area (4° C., day 0): 0.14% | Peak RRT 1.00 (Compound 1), relative percent peak area (4° C., day 0): 99.86% | Impurity Peak RRT 0.978, relative percent peak area (4° C., day 1): 0.14% | Peak RRT 1.00 (Compound 1), relative percent peak area (4° C., day 1): 99.86% | Impurity Peak RRT 0.978, relative percent peak area (4° C., day 3): 0.31% | Peak RRT 1.00 (Compound 1), relative percent peak area (4° C., day 3): 99.69% | Impurity Peak RRT 0.978, relative percent peak area (25° C., day 0): 0.14% | Peak RRT 1.00 (Compound 1), relative percent peak area (25° C., day 0): 99.86% | Impurity Peak RRT 0.978, relative percent peak area (25° C., day 1): 0.13% | Peak RRT 1.00 (Compound 1), relative percent peak area (25° C., day 1): 99.87% | Impurity Peak RRT 0.978, relative percent peak area (25° C., day 3): 0.30% | Peak RRT 1.00 (Compound 1), relative percent peak area (25° C., day 3): 99.70% | Conc. (potency) (4° C., day 0): 5560 µg/mL | Observation (physical state) (4° C., day 0): Clear solution | Conc. (potency) (4° C., day 1): 5570 µg/mL | Observation (physical state) (4° C., day 1): Clear solution | Conc. (potency) (4° C., day 3): 5650 µg/mL | Observation (physical state) (4° C., day 3): Clear solution | Conc. (potency) (25° C., day 0): 5560 µg/mL | Observation (physical state) (25° C., day 0): Clear solution | Conc. (potency) (25° C., day 1): 5470 µg/mL | Observation (physical state) (25° C., day 1): Clear solution | Conc. (potency) (25° C., day 3): 6090 µg/mL | Observation (physical state) (25° C., day 3): Clear solution
